{"source": "patent US5504101A", "about": "“5-HT-1D receptor ligands” (priority 1994, dated 1996)"}
{"molecular_target": "T1, 5-HT1Dβ receptor (Homo sapiens, UniProt P28222)", "T1 construct": "expressed in transfected cells", "T1 sequence (P28222 whole entry)": "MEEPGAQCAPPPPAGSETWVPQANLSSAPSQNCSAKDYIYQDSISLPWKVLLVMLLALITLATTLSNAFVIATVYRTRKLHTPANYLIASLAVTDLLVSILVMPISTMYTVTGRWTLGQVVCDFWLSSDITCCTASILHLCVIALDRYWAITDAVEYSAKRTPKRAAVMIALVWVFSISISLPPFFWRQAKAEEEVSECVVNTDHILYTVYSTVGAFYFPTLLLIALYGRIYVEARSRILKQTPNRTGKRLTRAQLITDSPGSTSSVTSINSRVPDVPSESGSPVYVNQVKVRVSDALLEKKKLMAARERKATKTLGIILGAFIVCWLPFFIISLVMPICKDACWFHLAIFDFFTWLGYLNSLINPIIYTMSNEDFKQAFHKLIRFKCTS", "assay": "biochemical", "assay_type": "binding", "conditions": "^3 H-5-HT radioligand; membranes from recombinant cells; 15 minute incubation at 37° C.; test compound 10^-11 M to 10^-5 M", "units": {"Ki": "nM"}, "experimental": "The assay protocol generally entailed the incubation of membranes prepared from cells expressing the 1Dβ sub-type of 5-HT1D receptors, with ^3 H-5-HT. Increasing concentrations of the test compound were incubated with the radioligand and the membrane homogenates prepared from the recombinant cells. After a 15 minute incubation at 37° C., the incubation was terminated by vacuum filtration. The filters were washed with buffer and counted for radioactivity using liquid scintillation spectrometry. The affinity of the test compound for 5-HT1DIβ receptor was determined by computer-assisted analysis of the data and by determining the amount of the compound necessary to inhibit 50% of the binding of the radioligand to the receptor. Concentrations ranging from 10^-11 M to 10^-5 M of the test compounds were evaluated."}
{"smiles": "COc1ccc(CCc2ccc3[nH]cc(CCN)c3c2)cc1", "note": "[4-MeO--Ph(CH2)2 --, 3-(2-aminoethyl)-5-(2-(4-methoxyphenyl)ethyl)indole]", "Ki": 3.2}
{"smiles": "NCCc1c[nH]c2ccc(CCc3ccccc3)cc12", "note": "[Ph(CH2)2 --, 3-(2-aminoethyl)-5-(2-phenylethyl)-indole]", "Ki": 2.9}
{"smiles": "NCCc1c[nH]c2ccc(OCCc3ccccc3)cc12", "note": "[Ph(CH2)2 O--, 3-(2-aminoethyl)-5-(2-phenylethyloxy)indole]", "Ki": 1}
{"smiles": "NCCc1c[nH]c2ccc(OCCCCc3ccccc3)cc12", "note": "[Ph(CH2)4 O--, 3-(2-aminoethyl)-5-(4-phenylbutyloxy)indole]", "Ki": 0.19}
{"smiles": "NCCc1c[nH]c2ccc(OCCCCCc3ccccc3)cc12", "note": "[Ph(CH2)5 O--, 3-(2-aminoethyl)-5-(5-phenylpentyloxy)indole]", "Ki": 0.64}
{"smiles": "NCCc1c[nH]c2ccc(OCCCCCCc3ccccc3)cc12", "note": "[Ph(CH2)6 O--, 3-(2-aminoethyl)-5-(6-phenylhexyloxy)indole]", "Ki": 1.9}
{"smiles": "NCCc1c[nH]c2ccc(OCCCCCCCCc3ccccc3)cc12", "note": "[Ph(CH2)8 O--, reference compound]", "Ki": 13.3}
{"smiles": "NCCc1c[nH]c2ccc(Cc3ccccc3)cc12", "note": "[PhCH2 --, 3-(2-aminoethyl)-5-benzylindole]", "Ki": 3.7}
{"smiles": "NCCc1c[nH]c2ccc(OCc3ccccc3)cc12", "note": "[PhCH2 O--, 3-(2-aminoethyl)-5-benzyloxyindole, reference compound]", "Ki": 10.5}
